What is called GI50 is the concentration that inhibits growth by half.

What all share (assay): DTP human tumour cell line panel, 48 h
Assay [1] has as its system 786-0.
In assay [2] the test system is ACHN.
Assay [3] concerns CAKI-1.
In assay [4] the test system is COLO 205.
Assay [5] has as its system HCT-116.
The subject of assay [6] is HL-60.
The subject of assay [7] is HOP-62.
The subject of assay [8] is LOX IMVI.
In assay [9] the test system is M14.
The subject of assay [10] is MDA-MB-435.
The subject of assay [11] is Malme-3M.
In assay [12] the test system is NCI-H23.
The subject of assay [13] is NCI-H460.
Assay [14] concerns OVCAR-3.
Assay [15] deals with OVCAR-5.
The test system of assay [16] is SK-MEL-2.
Assay [17] has as its system SNB-75.
The subject of assay [18] is U-251.
Assay [19] has as its system UACC-257.
Assay [20] has as its system UACC-62.

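Assay format: 96-well plates, 48-hour exposure. Here, GI50 denotes the concentration required for 50% inhibition of growth.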 Calls of active or inactive are those of the source. Cut-off read from the data, not from the text of the source: active = GI50 up to about 1.1 µM and inactive = higher. A value given as a limit tells only on which side of the number the result lay.

Regarding `O=C(O)c1cc(C(=O)O)nc(C(=O)O)c1`, the GI50 in [1], in [2], in assay [3], in assay [4], in assay [5] and in [6] was > 100 µM (inactive) throughout. Also, the GI50 in assay [7], in assay [8], in assay [9], in assay [10], in assay [11] and in assay [12] was > 100 µM (inactive) each time. Further, the GI50 in [13], in assay [14], in assay [15], in [16], in assay [17] and in [18] was > 100 µM (inactive) each time. In addition, the GI50 in [19] and in [20] was > 100 µM (inactive) each time.

Take `Cc1ccc(-c2nc3cc([N+](=O)[O-])ccc3[nH]2)cc1`: the GI50 in assay [1] is > 100 µM (inactive); in assay [2] it was 53 µM (inactive); in assay [3] it was 38 µM (inactive); in [4], 72.9 µM (inactive); in [5] it was 89.9 µM (inactive); in assay [6], 45.3 µM (inactive). The GI50 in assay [7] is > 100 µM (inactive); in [8], 80.5 µM (inactive); in [9], > 100 µM (inactive); in [10] it was > 100 µM (inactive); in assay [11], > 100 µM (inactive); in [12] it was > 100 µM (inactive). Further, the GI50 in assay [13] is 42.8 µM (inactive); in assay [14], 67.5 µM (inactive); in [16], > 100 µM (inactive); in assay [17], > 100 µM (inactive); in [18], > 100 µM (inactive); in assay [19] it was 80.4 µM (inactive). Besides, the GI50 in assay [20] was > 100 µM (inactive).

As for `CC[P+](c1ccccc1)(N(C)C)N(C)C`, the GI50 in assay [1], in assay [2], in [3], in [4], in assay [5] and in [6] was > 100 µM (inactive) throughout. Further, the GI50 in assay [7], in assay [8], in assay [9], in assay [10], in [11] and in assay [12] was > 100 µM (inactive) throughout. In addition, the GI50 in assay [13] was > 100 µM (inactive); in assay [14], > 100 µM (inactive); in [15], > 100 µM (inactive); in assay [16], > 100 µM (inactive); in assay [17] it was > 100 µM (inactive); in assay [18] it was 53.8 µM (inactive). The GI50 in assay [19] and in assay [20] was > 100 µM (inactive) throughout.

As for `CN(C)c1ccc2nc3c(C(=O)O)cc(O)c(O)c3[o+]c2c1`, the GI50 is 29.1 µM (inactive) in [1]; 31.5 µM (inactive) in [2]; 52.8 µM (inactive) in [3]; 24.7 µM (inactive) in [4]; 24.9 µM (inactive) in assay [5]; 22.3 µM (inactive) in assay [6]. Also, the GI50 is 52.8 µM (inactive) in [7]; 33.1 µM (inactive) in assay [8]; 21.7 µM (inactive) in [9]; 21.2 µM (inactive) in assay [10]; 6.49 µM (inactive) in assay [11]; 16.8 µM (inactive) in [12]. Besides, the GI50 in [13] was 24.8 µM (inactive); in [14], 13.3 µM (inactive); in assay [15], 65.3 µM (inactive); in assay [16] it was 16.3 µM (inactive); in assay [17] it was 21.5 µM (inactive); in assay [18], 29.7 µM (inactive). The GI50 in [19] is 14.8 µM (inactive); in assay [20] it was 20 µM (inactive).

For `O=C1c2ccccc2NC(=O)C2C1C(c1ccccc1)CC2(O)c1ccccc1` (stereo not given), the GI50 in [1] was 69.5 µM (inactive); in assay [2], 37 µM (inactive); in [3] it was 78 µM (inactive); in assay [4] it was 17.5 µM (inactive); in assay [5], 16.9 µM (inactive); in assay [6], 53.1 µM (inactive). Further, the GI50 in assay [7] is 79.1 µM (inactive); in assay [8], 43.2 µM (inactive); in assay [9] it was 60.5 µM (inactive); in assay [10] it was > 100 µM (inactive); in [11], > 100 µM (inactive); in [12], 62.7 µM (inactive). Besides, the GI50 was 34.7 µM (inactive) in assay [13]; 31.6 µM (inactive) in [14]; > 100 µM (inactive) in assay [15]; 21.9 µM (inactive) in assay [16]; 0.0128 µM (active) in assay [17]; 79.4 µM (inactive) in [19]. In assay [20], the GI50 was > 100 µM (inactive).

Consider `Cc1c(C=C(C#N)C#N)c(=O)n(C)c(=O)n1C`, for which the GI50 in [1], in assay [2], in assay [3], in assay [4], in assay [5] and in assay [6] was > 100 µM (inactive) each time. Further, the GI50 in assay [7], in assay [8], in [9], in assay [10], in [11] and in assay [12] was > 100 µM (inactive) each time. The GI50 in [13], in assay [14], in assay [15], in assay [16], in assay [17] and in assay [18] was > 100 µM (inactive) throughout. For the same compound, the GI50 in assay [19] and in [20] was > 100 µM (inactive) throughout.

As for `O=c1cc(-c2ccccc2)[nH]c2ccc(N3CCOCC3)cc12`, the GI50 was 0.0363 µM (active) in assay [1]; 0.0611 µM (active) in assay [2]; 0.0291 µM (active) in assay [3]; 0.0182 µM (active) in assay [4]; < 0.0167 µM (active) in assay [5]; 0.0151 µM (active) in assay [6]. Moreover, the GI50 in assay [7] was 0.0241 µM (active); in [8], 0.0335 µM (active); in assay [9] it was 0.0173 µM (active); in assay [10] it was < 0.01 µM (active); in assay [11], 14 µM (inactive); in assay [12] it was 0.0414 µM (active). The GI50 in [13] is 0.0465 µM (active); in assay [14] it was 0.0148 µM (active); in assay [16] it was 22.5 µM (inactive); in assay [17], 0.0143 µM (active); in assay [18], 0.0185 µM (active); in assay [19] it was > 100 µM (inactive). In [20], the GI50 is < 0.0268 µM (active).

`Cn1c2ccccc2c(=O)c2c(O)cc3c(c21)C=CC1(CCCC1)O3`: the GI50 is 76.4 µM (inactive) in assay [1]; > 100 µM (inactive) in [2]; > 100 µM (inactive) in [3]; > 100 µM (inactive) in assay [4]; > 100 µM (inactive) in [5]; > 100 µM (inactive) in [6]. Moreover, the GI50 in assay [7] was 85.3 µM (inactive); in [8], > 100 µM (inactive); in assay [9] it was > 100 µM (inactive); in assay [10], > 100 µM (inactive); in assay [11] it was > 100 µM (inactive); in assay [12], 68.1 µM (inactive). Further, the GI50 is > 100 µM (inactive) in assay [13]; > 100 µM (inactive) in assay [14]; 33.7 µM (inactive) in assay [15]; > 100 µM (inactive) in [16]; > 100 µM (inactive) in [17]; > 100 µM (inactive) in [18]. The GI50 in [19] and in assay [20] was > 100 µM (inactive) each time.

Consider `COc1cc(C2c3cc4c(cc3OC(NN)C2C)OCO4)cc(OC)c1OC` (stereo not given), for which the GI50 was 0.653 µM (active) in [1]; 1.78 µM (inactive) in [2]; 3.36 µM (inactive) in assay [3]; 0.575 µM (active) in assay [4]; 0.473 µM (active) in assay [5]; 0.323 µM (active) in [6]. In addition, the GI50 is 0.462 µM (active) in [7]; 0.458 µM (active) in [8]; 0.483 µM (active) in [9]; 0.157 µM (active) in [10]; 0.34 µM (active) in [11]; 1.11 µM (active) in assay [12]. Moreover, the GI50 is 0.489 µM (active) in assay [13]; 0.265 µM (active) in [14]; 0.647 µM (active) in assay [16]; 0.289 µM (active) in assay [17]; 0.403 µM (active) in assay [18]; 0.495 µM (active) in [20].

`CN(C)CCCc1c[nH]c2ccccc12`: the GI50 in [1], in [2], in [3], in [4], in assay [5] and in [6] was > 100 µM (inactive) in each case. For the same compound, the GI50 in [7], in assay [8], in [9], in assay [10], in [11] and in assay [12] was > 100 µM (inactive) throughout. For the same compound, the GI50 in assay [13], in [14], in assay [15], in assay [16], in [17] and in assay [18] was > 100 µM (inactive) each time. Also, the GI50 in [19] and in assay [20] was > 100 µM (inactive) in each case.

Source of the values: ChEMBL document CHEMBL1201862, “PubChem BioAssay data set” (2004).
